Measured values: BindingDB's records for doi:10.1016/j.ejmech.2019.111863 (University of Malakand, 2020)

Target: Prostaglandin G/H synthase 2 (Homo sapiens) (UniProt P35354)
Assay: Inhibition of recombinant human COX2 expressed in baculovirus infected Sf21 cells using arachidonic acid as substrate preincubated for 5 mins followed by substrate addition and measured after 5 mins by UV-visible spectrophotometric method

Chain of Prostaglandin G/H synthase 2 (Homo sapiens) (P35354 whole entry, looked up): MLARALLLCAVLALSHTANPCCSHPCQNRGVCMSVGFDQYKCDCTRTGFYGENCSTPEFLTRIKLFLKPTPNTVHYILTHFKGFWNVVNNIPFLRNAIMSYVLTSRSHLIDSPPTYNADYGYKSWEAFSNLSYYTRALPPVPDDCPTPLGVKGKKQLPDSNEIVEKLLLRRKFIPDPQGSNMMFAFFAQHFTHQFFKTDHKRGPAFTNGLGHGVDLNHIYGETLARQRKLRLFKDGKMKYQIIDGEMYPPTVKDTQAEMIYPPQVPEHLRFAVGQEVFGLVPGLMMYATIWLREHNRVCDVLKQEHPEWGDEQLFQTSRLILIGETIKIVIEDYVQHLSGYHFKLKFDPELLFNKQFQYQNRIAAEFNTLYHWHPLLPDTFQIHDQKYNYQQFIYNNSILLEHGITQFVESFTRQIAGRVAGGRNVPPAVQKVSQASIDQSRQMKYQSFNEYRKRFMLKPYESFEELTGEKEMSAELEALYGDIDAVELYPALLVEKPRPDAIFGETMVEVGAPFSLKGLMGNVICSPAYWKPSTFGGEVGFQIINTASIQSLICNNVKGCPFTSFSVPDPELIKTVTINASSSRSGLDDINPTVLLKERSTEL

Row | Structure (SMILES) | IC50
1 | O=C1CCCC1C1CC(=O)N(c2ccccc2)C1=O (centres undefined) | 51.4 µM
2 | CC1CCC(=O)C(C2CC(=O)N(Cc3ccccc3)C2=O)C1 (centres undefined) | 21.9 µM
3 | Cc1ccc(C(=O)CC2CC(=O)N(c3ccc(S(N)(=O)=O)cc3)C2=O)cc1 (centres undefined) | 0.98 µM
4 | O=C1CCCCC1C1CC(=O)N(Cc2ccccc2)C1=O (centres undefined) | 20 µM
5 | O=C1CCCCC1C1CC(=O)N(c2ccccc2)C1=O (centres undefined) | 45.1 µM
6 | O=C1CCCCCC1C1CC(=O)N(c2ccccc2)C1=O (centres undefined) | 39.5 µM
7 | O=C1CCOCC1C1CC(=O)N(c2ccccc2)C1=O (centres undefined) | 56.6 µM
8 | NS(=O)(=O)c1ccc(N2C(=O)CC(C3CCCCCC3=O)C2=O)cc1 (centres undefined) | 20.7 µM
9 | NS(=O)(=O)c1ccc(N2C(=O)CC(CC(=O)c3ccccn3)C2=O)cc1 (centres undefined) | 8.94 µM
10 | NS(=O)(=O)c1ccc(N2C(=O)CC(CC(=O)c3ccc(Cl)cc3)C2=O)cc1 (centres undefined) | 6.29 µM
11 | CC1CCC(=O)C(C2CC(=O)N(c3ccccc3)C2=O)C1 (centres undefined) | 56.5 µM
12 | O=C1CCCCC1C1CC(=O)N(c2ccc(Br)cc2)C1=O (centres undefined) | 113 µM
13 | NS(=O)(=O)c1ccc(N2C(=O)CC(CC(=O)c3ccccc3)C2=O)cc1 (centres undefined) | 4.23 µM
14 | COc1ccc(C(=O)CC2CC(=O)N(c3ccc(S(N)(=O)=O)cc3)C2=O)cc1 (centres undefined) | 2.1 µM
